In patent US6482849B1, “Inhibitors of α4β1 mediated cell adhesion” (Tanabe Seiyaku Co., Ltd., priority 1997, dated 2002):

Key:
[1] = molecular target: T1, α4β1 integrin (Jurkat cell adhesion to immobilized CS-1 derived peptide CLHPGEILDVPST) (Homo sapiens, UniProt P05556+P13612); test: Jurkat-CS-1 Assay; format: cell-based; details: Jurkat cells on CS-1 peptide coated plates
T1 construct: 100 μl of Jurkat cells (2.5×10^6 cells/ml) in DMEM plus BSA; endogenous in cells; host or cells: Jurkat T-cell line
T1 sequence (P13612 34-1032): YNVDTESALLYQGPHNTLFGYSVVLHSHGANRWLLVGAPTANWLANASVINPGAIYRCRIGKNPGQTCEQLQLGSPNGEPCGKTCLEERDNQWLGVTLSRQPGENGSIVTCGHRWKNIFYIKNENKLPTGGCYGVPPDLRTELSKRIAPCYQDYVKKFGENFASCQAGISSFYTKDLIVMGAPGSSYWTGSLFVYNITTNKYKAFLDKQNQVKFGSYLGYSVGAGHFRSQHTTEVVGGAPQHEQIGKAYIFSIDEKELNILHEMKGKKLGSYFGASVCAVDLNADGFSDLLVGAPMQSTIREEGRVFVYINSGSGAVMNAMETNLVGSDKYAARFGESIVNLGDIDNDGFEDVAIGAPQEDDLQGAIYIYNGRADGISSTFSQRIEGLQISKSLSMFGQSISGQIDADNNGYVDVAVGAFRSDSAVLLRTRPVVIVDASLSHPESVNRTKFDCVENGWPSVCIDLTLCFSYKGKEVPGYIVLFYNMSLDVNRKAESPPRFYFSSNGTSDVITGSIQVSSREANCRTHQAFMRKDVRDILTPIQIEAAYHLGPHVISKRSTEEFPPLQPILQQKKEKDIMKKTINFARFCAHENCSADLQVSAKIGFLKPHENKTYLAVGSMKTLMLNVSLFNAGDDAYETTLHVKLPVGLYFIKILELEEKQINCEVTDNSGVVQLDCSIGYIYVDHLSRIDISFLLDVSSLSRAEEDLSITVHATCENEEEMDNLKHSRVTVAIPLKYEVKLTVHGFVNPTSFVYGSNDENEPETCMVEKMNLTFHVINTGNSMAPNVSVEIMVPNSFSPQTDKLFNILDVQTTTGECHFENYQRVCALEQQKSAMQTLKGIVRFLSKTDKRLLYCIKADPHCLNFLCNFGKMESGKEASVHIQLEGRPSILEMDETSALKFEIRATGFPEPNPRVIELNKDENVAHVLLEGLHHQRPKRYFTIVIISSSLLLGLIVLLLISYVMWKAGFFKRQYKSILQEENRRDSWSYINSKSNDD
T1 sequence (P05556 21-798): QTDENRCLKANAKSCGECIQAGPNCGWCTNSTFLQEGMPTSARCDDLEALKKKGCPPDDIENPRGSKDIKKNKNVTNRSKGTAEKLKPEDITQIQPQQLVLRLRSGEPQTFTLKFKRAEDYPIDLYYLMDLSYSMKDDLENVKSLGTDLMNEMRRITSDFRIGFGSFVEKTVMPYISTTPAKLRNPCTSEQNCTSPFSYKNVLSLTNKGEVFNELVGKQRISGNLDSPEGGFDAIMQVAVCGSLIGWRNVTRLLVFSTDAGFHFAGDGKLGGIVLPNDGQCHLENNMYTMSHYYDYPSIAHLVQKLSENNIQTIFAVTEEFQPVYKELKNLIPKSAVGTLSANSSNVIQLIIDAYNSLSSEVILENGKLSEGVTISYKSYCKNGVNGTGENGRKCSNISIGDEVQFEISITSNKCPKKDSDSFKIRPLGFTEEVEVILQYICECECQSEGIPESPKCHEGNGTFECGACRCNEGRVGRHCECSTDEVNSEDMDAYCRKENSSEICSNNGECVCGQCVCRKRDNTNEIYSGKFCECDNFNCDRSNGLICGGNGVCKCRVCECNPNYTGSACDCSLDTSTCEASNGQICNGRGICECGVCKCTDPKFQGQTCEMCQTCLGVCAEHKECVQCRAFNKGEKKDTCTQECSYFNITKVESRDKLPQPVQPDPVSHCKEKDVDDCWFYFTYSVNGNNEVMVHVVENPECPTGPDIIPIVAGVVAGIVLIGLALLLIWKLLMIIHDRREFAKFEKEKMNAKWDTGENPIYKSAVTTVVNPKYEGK
In short: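 CS-1 peptide was SPDP-crosslinked onto HSA-coated plates and blocked with BSA. Jurkat cells (2.5×10^6 cells/ml) in DMEM/BSA were mixed with compound, generally at 100, 20, 5 and 1.25 μM, and allowed to adhere for 1 hr at 37° C. Bound cells were fixed, stained with toluidine blue and quantified by OD590.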

[2] = molecular target: T2, α4β1 integrin (Jurkat T-cell adhesion to IL-1 stimulated endothelial cell monolayers) (Homo sapiens, UniProt P05556+P13612); test: Jurkat-Endothelial Cell Adhesion Assay (Jurkat EC); format: cell-based; details: Jurkat cells on IL-1 stimulated HUVEC monolayers
T2 construct: a T-cell line, Jurkat, known to express the α4β1 integrin; host or cells: Jurkat T-cell line
T2 sequence (P13612 34-1032): as the sequence (P13612 34-1032) above
T2 sequence (P05556 21-798): as the sequence (P05556 21-798) above
In short: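 BCECF-loaded Jurkat cells (5×10^5) mixed with compound (generally 100, 20, 5 and 1.25 μM) and added to HUVEC monolayers prestimulated 4 hr with 0.1 ng/ml IL-1, in DMEM-HSA. After 5 min on ice and 20 min at 37° C, washed; fluorescence gives % adhesion relative to no-compound control set at 100%.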

[3] = test system: VLA-4 integrin-dependent eosinophil infiltration; test: Dextran pleurisy model (dextran-induced pleural leukocyte infiltration); format: in vivo, C57BL/6 mice; details: 4 h post-induction
Experimental: C57BL/6 mice (Jackson, Bar Harbor, Me.;), 6-8 weeks old, weighing 20-25 g were used throughout. All mice were acclimated for at least 7-14 days after arrival and maintained under controlled temperature (20-22° C.) and a 12 hr daily light cycle (6.00 A.M.-6.00 P.M.). Mice were housed in laminar flow racks and checked biweekly for viral infections (mouse hepatitis virus, minute virus of mice, rodent orphan parvovirus, Sendai) with kits obtained from Oreganon Teknika (Durham, N.C.) using established enzyme-linked immunoabsorbent assays. Mice testing positive for any of the above were omitted from the study. All mice were fed standard laboratory chow (Upjohn Lab Rodent Irradiated Mouse Chow, #5011-3, PMI Feeds, St. Louis, Mo.) and acidified drinking water (pH 5.0) ad libitum.
Intrapleural injections were made using a 27 G needle cut to 3-4 mm and blunted by filing. Injections were made by inserting the needle between the mid-intercostal ribs on the right side of the thoracic cavity.
Dextran (MW 5-40×10^6, St Louis, Mo.) was injected as a 10% solution in saline in a volume of 100 μl/mouse. Care was taken to avoid bleeding at the site of injection at which the intercostal muscles were cut to facilitate smooth insertion of the needle.
Pleural leukocytes were collected as follows: 4 h post-induction, pleural inflammatory exudate was removed by washing with 2×1.0 ml Ca^++/Mg^++ free HBSS (Gibco, Grand Island, N.Y.) containing 45 mg EDTA/100 ml HBSS, 4° C. Total leukocyte counts were made by hemocytometer following erythrocyte lysis in 2% acetic acid in PBS buffer; exudate leukocyte pellets were resuspended in serum for cytospin preparations and stained (Diff Quik, Baxter Healthcare, McGraw Park, Ill.) for differential leukocyte counts (neutrophils, eosinophils, and mononuclear leukocytes).
The pleural cavities of mice receiving either no intrapleural injection, or saline were washed and the cells counted in the same way to estimate baseline or saline-induced pleural leukocyte counts respectively.
All drugs were dissolved in PBS and the pH adjusted to 7.5 with NaOH. Each drug was administered intravenously through the retroorbital sinus at hourly intervals (0-3 h) starting from time “0” as indicated.
The following camphoric acid analogues were tested for their inhibitory effects on dextran-induced leukocyte infiltration: Examples 4, 12, 54, 63, 166, 93, 180, 181, 183, 184, 217, Camphoric acid or PBS (saline) was administered iv. as a control. Inhibition of eosinophil infiltration, which was suppressed by anti-alpha-4 Mab (PS/2, 50%), was used as a readout of VLA-4 antagonist activity of the camphoric acids tested. Data for neutrophils are also reported.

[4] = 50 mg/kg × 2 iv (0h,+1h relative to dextran)
[5] = 50 mg/kg × 4 iv (0h,+1h,+2h,+3h relative to dextran)

SMILES | IC50 [1] [µM] | IC50 [2] [µM] | %Δ Pleural Leukocytes, Eos [3, 4] | %Δ Pleural Leukocytes, Neutro [3, 4] | %Δ Pleural Leukocytes, Eos [3, 5] | %Δ Pleural Leukocytes, Neutro [3, 5] | melting point [°C]
CC1(C)[C@@H](C(=O)N[C@@H](Cc2ccc(OCc3c(Cl)cccc3Cl)cc2)C(=O)O)CC[C@@]1(C)C(=O)O (relative stereo) [Example 12, (1S-cis)-N-[(3-Carboxy-2,2,3-trimethylcyclopentyl)carbonyl]-O-[(2,6-dichlorophenyl)methyl]-L-tyrosine] | ≤ 0.08 | ≤ 0.8 | A (A≦−50) | B (−50<B<−10) | A (A≦−50) | B (−50<B<−10) | 
COc1ccccc1C(=O)Nc1ccc(C[C@H](NC(=O)[C@H]2CC[C@@](C)(C(=O)O)C2(C)C)C(=O)O)cc1 [Example 95] | 0.08 to 0.5 | 0.8 to 5 |  |  |  |  | 140 to 143
CC1(C)[C@@H](C(=O)N[C@@H](Cc2ccc(NC(=O)c3cc(Br)ccc3Br)cc2)C(=O)O)CC[C@@]1(C)C(=O)O [Example 97] | ≤ 0.08 | ≤ 0.8 |  |  |  |  | 170 to 173
CC1(C)[C@@H](C(=O)N[C@@H](Cc2ccc(NC(=O)c3cc(C(F)(F)F)ccc3C(F)(F)F)cc2)C(=O)O)CC[C@@]1(C)C(=O)O [Example 104] | ≤ 0.08 | ≤ 0.8 |  |  |  |  | 148 to 150
Cc1cccc(Cl)c1C(=O)Nc1ccc(C[C@H](NC(=O)[C@H]2CC[C@@](C)(C(=O)O)C2(C)C)C(=O)O)cc1 [Example 106] | ≤ 0.08 | ≤ 0.8 |  |  |  |  | 165 to 168
CC1(C)[C@@H](C(=O)N[C@@H](Cc2ccc(NC(=O)c3ccccc3C(F)(F)F)cc2)C(=O)O)CC[C@@]1(C)C(=O)O [Example 108] | ≤ 0.08 | ≤ 0.8 |  |  |  |  | 180 to 183
CC1(C)[C@@H](C(=O)N[C@@H](Cc2ccc(NC(=O)c3ccccc3I)cc2)C(=O)O)CC[C@@]1(C)C(=O)O [Example 110] | ≤ 0.08 | ≤ 0.8 |  |  |  |  | 162 to 165
CC1(C)[C@@H](C(=O)N[C@@H](Cc2ccc(NC(=O)c3ccccc3Br)cc2)C(=O)O)CC[C@@]1(C)C(=O)O [Example 112] | ≤ 0.08 | ≤ 0.8 |  |  |  |  | 156 to 158
CC1(C)[C@@H](C(=O)N[C@@H](Cc2ccc(NC(=O)c3ccc(Cl)c(Cl)c3)cc2)C(=O)O)CC[C@@]1(C)C(=O)O [Example 114] | 0.08 to 0.5 | ≤ 0.8 |  |  |  |  | 155 to 157
CC1(C)[C@@H](C(=O)N[C@@H](Cc2ccc(NC(=O)c3ccc(-c4ccccc4)cc3)cc2)C(=O)O)CC[C@@]1(C)C(=O)O [Example 116] | ≤ 0.08 | ≤ 0.8 |  |  |  |  | 162 to 165
CC1(C)[C@@H](C(=O)N[C@@H](Cc2ccc(NC(=O)c3ccccc3Cl)cc2)C(=O)O)CC[C@@]1(C)C(=O)O [Example 120] | 0.08 to 0.5 | 0.8 to 5 |  |  |  |  | 143 to 145
CC1(C)[C@@H](C(=O)N[C@@H](Cc2ccc(NC(=O)Cc3ccccc3)cc2)C(=O)O)CC[C@@]1(C)C(=O)O [Example 121] | 0.5 to 1 | 0.8 to 5 |  |  |  |  | 240 to 242
CC1(C)[C@@H](C(=O)N[C@@H](Cc2ccc(NC(=O)c3ccc4ccccc4c3)cc2)C(=O)O)CC[C@@]1(C)C(=O)O [Example 124] | 0.08 to 0.5 | 0.8 to 5 |  |  |  |  | 141 to 143
CC1(C)[C@@H](C(=O)N[C@@H](Cc2ccc(NC(=O)c3ccc(Cl)cc3)cc2)C(=O)O)CC[C@@]1(C)C(=O)O [Example 128] | 0.08 to 0.5 | 0.8 to 5 |  |  |  |  | 185 to 188
CC1(C)[C@@H](C(=O)N[C@@H](Cc2ccc(NC(=O)c3ccco3)cc2)C(=O)O)CC[C@@]1(C)C(=O)O [Example 130] | 0.08 to 0.5 | 0.8 to 5 |  |  |  |  | 158 to 161
CC1(C)[C@@H](C(=O)N[C@@H](Cc2ccc(NC(=O)c3ccccc3F)cc2)C(=O)O)CC[C@@]1(C)C(=O)O [Example 132] | 0.08 to 0.5 | 0.8 to 5 |  |  |  |  | 117 to 120
CC1(C)[C@@H](C(=O)N[C@@H](Cc2ccc(NC(=O)c3cccc4c3Cc3ccccc3-4)cc2)C(=O)O)CC[C@@]1(C)C(=O)O [Example 136] | 0.5 to 1 | 5 to 10 |  |  |  |  | 160 to 163
CC(C)COC(=O)Nc1ccc(C[C@H](NC(=O)[C@H]2CC[C@@](C)(C(=O)O)C2(C)C)C(=O)O)cc1 [Example 141] | 0.5 to 1 | 0.8 to 5 |  |  |  |  | 125 to 128
Cc1ccccc1C(=O)Nc1ccc(C[C@H](NC(=O)[C@H]2CC[C@@](C)(C(=O)O)C2(C)C)C(=O)O)cc1 [Example 142] | 0.08 to 0.5 | 0.8 to 5 |  |  |  |  | 152 to 155
CC1(C)[C@@H](C(=O)N[C@@H](Cc2ccc(NC(=O)c3ccccc3N)cc2)C(=O)O)CC[C@@]1(C)C(=O)O [Example 144] | 0.08 to 0.5 | 0.8 to 5 |  |  |  |  | 195 to 198
CC1(C)[C@@H](C(=O)N[C@@H](Cc2ccc(NC(=O)C3Cc4ccccc4CN3)cc2)C(=O)O)CC[C@@]1(C)C(=O)O (stereo partly drawn) [Example 146] | 0.08 to 0.5 | 0.8 to 5 |  |  |  |  | 208 to 211
Cc1ccc(S(=O)(=O)Nc2ccc(C[C@H](NC(=O)[C@H]3CC[C@@](C)(C(=O)O)C3(C)C)C(=O)O)cc2)cc1 [Example 150] | 0.5 to 1 | 0.8 to 5 |  |  |  |  | 220 to 223
CC1(C)[C@@H](C(=O)N[C@@H](Cc2ccc(NCc3c(Cl)cccc3Cl)cc2)C(=O)O)CC[C@@]1(C)C(=O)O [Example 152] | ≤ 0.08 | ≤ 0.8 |  |  |  |  | 100 to 103
CC1(C)[C@@H](C(=O)N[C@@H](Cc2ccc(OCc3c(Cl)cccc3Cl)cc2)C(=O)O)CC[C@@]1(C)C(N)=O [Example 155, (1S-cis)-N-[[3-(Aminocarbonyl)-2,2,3-trimethylcyclopentyl]carbonyl]-O-[(2,6-dichlorophenyl)methyl]-L-tyrosine] | 0.5 to 1 | 5 to 10 |  |  |  |  | 102 to 104
CC1(C)[C@@H](C(=O)N[C@@H](Cc2ccc(NC(=O)c3cccnc3Cl)cc2)C(=O)O)CC[C@@]1(C)C(=O)O [Example 208, (1S-cis)-N-[(3-Carboxy-2,2,3-trimethylcyclopentyl)carbonyl]-4-[[(2-chloro-3-pyridinyl)carbonyl]amino]-L-phenylalanine] | 0.08 to 0.5 | ≤ 0.8 |  |  |  |  | 172 to 174
CC1(C)[C@@H](C(=O)N[C@@H](Cc2ccc(NC(=O)c3ccc(Cl)nc3Cl)cc2)C(=O)O)CC[C@@]1(C)C(=O)O [Example 209, (1S-cis)-N-[(3-Carboxy-2,2,3-trimethylcyclopentyl)carbonyl]-4-[[(2,6-dichloro-3-pyridinyl)carbonyl]amino]-L-phenylalanine] | ≤ 0.08 | ≤ 0.8 |  |  |  |  | 246 to 247
COc1nc(Cl)ccc1C(=O)Nc1ccc(C[C@H](NC(=O)[C@H]2CC[C@@](C)(C(=O)O)C2(C)C)C(=O)O)cc1 [Example 210, (1S-cis)-N-[(3-Carboxy-2,2,3-trimethylcyclopentyl)carbonyl]-4-[[(2-methoxy-6-chloropyridin-3-yl)carbonyl]-amino]-L-phenylalanine] | ≤ 0.08 | ≤ 0.8 |  |  |  |  | 128 to 131
